Source: patent publication US11266739B2, “Methods and compositions for adoptive cell therapy” (Juno Therapeutics, Inc., priority 2014, dated 2022)

Legend:
HLA-A*11:01 = HLA-A*11:01 (Homo sapiens, UniProt P04439, A114D/D185E/E176A/F33Y/L180Q/S129P/T187R); assay: REVEAL Epitope Discovery System in vitro MHC-peptide binding assay, HLA-A*11:01; details: binding normalized to positive control peptide set at 100%, score >50 considered good or high affinity binding
Description: (§1) Actual binding affinities for certain HLA class I alleles (A*02:01, A*03:01, A*11:01, and B*08:01) were assessed in vitro for exemplary overlapping 9 amino acid peptide sequences within a portion of the 26 amino acid junction region spanning the CD28 and 4-1BB junction. Specifically, assessment was of a series of overlapping 9-mer peptides derived from the sequence […] (set forth in SEQ ID NO: 7), which contains a portion of the CD28 transmembrane domain and 4-1BB costimulatory domain spanning the junction between the domains (bond joining the two amino acids noted in underline). In addition, a series of overlapping 9-mer peptides of each of a number of different variants of this portion also were assessed, each variant containing a mutation or mutations in this region as described in Example 2.
(§2) The various 9-mer overlapping peptides were synthesized and their purity tested by MALDI-TOF Mass Spectrometry. The synthetic peptides were then incubated with recombinant MHC molecules to assess binding properties using the REVEAL Epitope Discovery System, which is a high-throughput binding assay that measures the degree to which each peptide is able to stabilize a ternary MHC-peptide complex (ProImmune, Oxford, United Kingdom). Each peptide was separately tested for this ability with respect to each of the HLA class I alleles, normalized to the degree observed for a positive control (known T cell epitope for the relevant allele). The results are reported as a score, in which the binding was normalized to the positive control peptide set at 100%.

HLA-B*08:01 = HLA-B*08:01 (Homo sapiens, UniProt P01889, A93T/A95T/D138N/E176V/E187T/K202T/Q94N/R180D/S35A/V36M/Y33D/Y91F); assay: REVEAL Epitope Discovery System in vitro MHC-peptide binding assay, HLA-B*08:01; details: binding normalized to positive control peptide set at 100%, score >50 considered good or high affinity binding
Description: as §1, §2

[1] = tested on: HLA class I alleles (A*02:01, A*03:01, A*11:01, and B*08:01); assay: Comparison of in silico and in vitro binding of variant junction peptides to HLA class I alleles (summary); design: species or system human; details: without higher binding affinity to another HLA allele or for another peptide
Description: as §1, §2
The results were compared to predicted binding (IC50) values obtained for binding of the same peptide:MHC complex, using the in silico prediction methods as described in Example 2. Since the maximum IC50 value predicted was about 50,000, the IC50 values were log transformed, subtracted from LOG(50000) and divided by LOG(50000) to obtain a normalized in silico score ((Log(50000)−log IC50)/Log(50000)). […]

In Vitro Score (A*11:01) (HLA-A*11:01)	In Vitro Score (B*08:01) (HLA-B*08:01)	predicted or actual binding affinity or score for at least one HLA allele and/or at least one peptide [1]	Molecule
36.60	0.10		IFWVHRGRK [junction 9-mer, peptide 5, mutation K29H]
51.80	0.20		AFIIFWVAR [junction 9-mer, peptide 2, mutation K29A]
54.50	0.00		IIFWVKRGR
13.80	32.40		WVARGRKKL [junction 9-mer, peptide 7, mutation K29A]
77.50	0.20		IIFWVHRGR [junction 9-mer, peptide 4, mutation K29H]
34.90	0.30		AFIIFWVHR [junction 9-mer, peptide 2, mutation K29H]
54.00	0.30		AFIIFWVSR [junction 9-mer, peptide 2, mutation K29S]
69.70	2.20		IFWVKRGAK [junction 9-mer, peptide 5, mutation R32A]
39.20	0.00		IFWVSRGRK [junction 9-mer, peptide 5, mutation K29S]
2.80	47.60		WVKRGHKKL [junction 9-mer, peptide 7, mutation R32H]
100.00	0.40		IIFWVKRGS [junction 9-mer, peptide 4, mutation R32S]
61.10	58.30		IFWVKRGLK [junction 9-mer, peptide 5, mutation R32L]
109.20	0.30		VAFIIFWVK
34.90	0.00		IFWVARGRK [junction 9-mer, peptide 5, mutation K29A]
67.50	0.10		IFWVQRGNK [junction 9-mer, peptide 5, mutation K29Q/R32N]
61.30	0.20		IFWVQRGAK [junction 9-mer, peptide 5, mutation K29Q/R32A]
11.80	56.10		WVKRGSKKL [junction 9-mer, peptide 7, mutation R32S]
68.90	0.00		IIFWVSRGR [junction 9-mer, peptide 4, mutation K29S]
42.10	0.90		IIFWVKRGN [junction 9-mer, peptide 4, mutation R32N]
70.60	0.30		IIFWVARGR [junction 9-mer, peptide 4, mutation K29A]

In Vitro Score (A*11:01) (HLA-A*11:01)	In Vitro Score (B*08:01) (HLA-B*08:01)	predicted or actual binding affinity or score for at least one HLA allele and/or at least one peptide [1]	Molecule
8.90			FWVARGRKK [junction 9-mer, peptide 6, mutation K29A]
45.90	0.10		IFWVKRGNK [junction 9-mer, peptide 5, mutation R32N]
56.50	0.20		IIFWVQRGA [junction 9-mer, peptide 4, mutation K29Q/R32A]
72.80	0.10		IIFWVQRGR [junction 9-mer, peptide 4, mutation K29Q]
12.80	45.10		WVQRGRKKL [junction 9-mer, peptide 7, mutation K29Q]
35.20	0.40		IIFWVLRGR [junction 9-mer, peptide 4, mutation K29L]
22.60	0.90		IIFWVKRGA [junction 9-mer, peptide 4, mutation R32A]
4.10	65.90		WVKRGNKKL [junction 9-mer, peptide 7, mutation R32N]
25.10	0.10		VAFIIFWVS [junction 9-mer, peptide 1, mutation K29S]
0.90	0.20		FIIFWVHRG [junction 9-mer, peptide 3, mutation K29H]
47.90	1.20		IFWVKRGSK [junction 9-mer, peptide 5, mutation R32S]
34.60	0.10		VAFIIFWVR [junction 9-mer, peptide 1, mutation K29R]
4.60	34.10		WVKRGAKKL [junction 9-mer, peptide 7, mutation R32A]
10.70	32.00		WVQRGNKKL [junction 9-mer, peptide 7, mutation K29Q/R32N]
128.50	0.00		IFWVQRGRK [junction 9-mer, peptide 5, mutation K29Q]
30.90	3.20		IFWVKRGHK [junction 9-mer, peptide 5, mutation R32H]
32.40	1.70		IIFWVKRGL [junction 9-mer, peptide 4, mutation R32L]
		reduced	R31H: variant CAR junction region, replacement numbered per SEQ ID NO:5 (protein, CD28-4-1BB) FWVLVVVGGVLACYSLLVTVAFIIFWVKRGHKKLLYIFKQPFMRPVQTTQEEDGCSCRFPEEEEGGCEL
		reduced	L34S: variant CAR junction region, replacement numbered per SEQ ID NO:5 (protein, CD28-4-1BB) FWVLVVVGGVLACYSLLVTVAFIIFWVKRGRKKSLYIFKQPFMRPVQTTQEEDGCSCRFPEEEEGGCEL
		reduced	L34A: variant CAR junction region, replacement numbered per SEQ ID NO:5 (protein, CD28-4-1BB) FWVLVVVGGVLACYSLLVTVAFIIFWVKRGRKKALYIFKQPFMRPVQTTQEEDGCSCRFPEEEEGGCEL
